Test results from US20260285850A1, “SUBSTITUTED OXAZOLIDINONES AND IMIDAZOLINONES AS HERBICIDES” (FMC CORPORATION, priority 2023, published 2026).

What was measured:
Type in all cases: in vivo
[1] = system: sedge, umbrella (small-flower umbrella sedge, Cyperus difformis); assay: Test B flooded paddy test, visual plant response rating 0-100; conditions: 250 g ai/ha, Flood, applied to paddy water, evaluated after 13 days
Procedure, shortened: (§1)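 Treatment occurs at the 2-leaf stage by adding compound to floodwater standing 3 cm above the soil, a level kept for the whole test. Plants stay in the greenhouse 13 days before visual comparison with controls.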

rice (Oryza sativa) = assay: as above; conditions: 250 g ai/ha, Flood, applied to paddy water, evaluated after 13 days
Procedure, shortened: as §1

[2] = system: barnyardgrass (Echinochloa crusgalli); assay: as above; conditions: 250 g ai/ha, Flood, applied to paddy water, evaluated after 13 days
Procedure, shortened: as §1

[3] = system: ducksalad (Heteranthera limosa); assay: as above; conditions: 250 g ai/ha, Flood, applied to paddy water, evaluated after 13 days
Procedure, shortened: as §1

corn (Zea mays) [4] = assay: Test A preemergence soil spray, visual injury rating 0-100; conditions: 10 days, 0 = no effect, 100 = complete control
Procedure, shortened: (§2)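 Plants were grown in a loam soil-sand blend and treated with test chemical in a non-phytotoxic solvent mixture containing surfactant, either sprayed on soil preemergence or applied postemergence to 2-10 cm plants. After 10 days in a greenhouse, injury was scored visually against untreated controls, 0 meaning no effect and 100 complete control.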

kochia (Bassia scoparia) [5] = assay: as above; conditions: 10 days, 0 = no effect, 100 = complete control
Procedure, shortened: as §2

[6] = system: ragweed (common ragweed, Ambrosia artemisiifolia); assay: as above; conditions: 10 days, 0 = no effect, 100 = complete control
Procedure, shortened: as §2

[7] = system: blackgrass (Alopecurus myosuroides); assay: as above; conditions: 10 days, 0 = no effect, 100 = complete control
Procedure, shortened: as §2

[8] = system: wheat (Triticum aestivum); assay: as above; conditions: 10 days, 0 = no effect, 100 = complete control
Procedure, shortened: as §2

[9] = system: ryegrass, Italian (italian ryegrass, Lolium multiflorum); assay: as above; conditions: 10 days, 0 = no effect, 100 = complete control
Procedure, shortened: as §2

soybean (Glycine max) [10] = assay: as above; conditions: 10 days, 0 = no effect, 100 = complete control
Procedure, shortened: as §2

[11] = system: oat, wild (wild oat, Avena fatua); assay: as above; conditions: 10 days, 0 = no effect, 100 = complete control
Procedure, shortened: as §2

[12] = system: barnyardgrass (Echinochloa crus-galli); assay: as above; conditions: 10 days, 0 = no effect, 100 = complete control
Procedure, shortened: as §2

[13] = system: palmer (palmer amaranth, palmer pigweed, Amaranthus palmeri); assay: as above; conditions: 10 days, 0 = no effect, 100 = complete control
Procedure, shortened: as §2

corn (Zea mays) [14] = assay: Test A postemergence application, visual injury rating 0-100; conditions: 10 days
Procedure, shortened: as §2

kochia (Bassia scoparia) [15] = assay: as above; conditions: 10 days
Procedure, shortened: as §2

[16] = system: ragweed (common ragweed, Ambrosia artemisiifolia); assay: as above; conditions: 10 days
Procedure, shortened: as §2

[17] = system: horseweed (Erigeron canadensis); assay: as above; conditions: 10 days
Procedure, shortened: as §2

[18] = system: blackgrass (Alopecurus myosuroides); assay: as above; conditions: 10 days
Procedure, shortened: as §2

[19] = system: galium (catchweed bedstraw, Galium aparine); assay: as above; conditions: 10 days
Procedure, shortened: as §2

[20] = system: wheat (Triticum aestivum); assay: as above; conditions: 10 days
Procedure, shortened: as §2

[21] = system: ryegrass, Italian (italian ryegrass, Lolium multiflorum); assay: as above; conditions: 10 days
Procedure, shortened: as §2

soybean (Glycine max) [22] = assay: as above; conditions: 10 days
Procedure, shortened: as §2

[23] = system: oat, wild (wild oat, Avena fatua); assay: as above; conditions: 10 days
Procedure, shortened: as §2

[24] = system: barnyardgrass (Echinochloa crus-galli); assay: as above; conditions: 10 days
Procedure, shortened: as §2

[25] = system: palmer (palmer amaranth, palmer pigweed, Amaranthus palmeri); assay: as above; conditions: 10 days
Procedure, shortened: as §2

[26] = 31 g ai/ha, postemergence, 0 = no effect, 100 = complete control
[27] = Postemergence, 125 g ai/ha, 0 is no effect, 100 is complete control

CCOC(=O)C1=CCC(NC(=O)C2(C)CN(c3cc(Cl)cc(Cl)c3)C(=O)O2)C1 (stereo not drawn) [Compound 60]
40: Kochia plant response rating (0-100) (kochia (Bassia scoparia) [5]; 31 g ai/ha) | Soybean plant response rating (0 to 100 scale) (soybean (Glycine max) [10]; 125 g ai/ha) | Wheat plant response rating (0-100) [20, 26]
60: Corn plant response rating (0 to 100 scale) (corn (Zea mays) [4]; 125 g ai/ha) | Ragweed plant response rating (0 to 100 scale) ([6]; 125 g ai/ha) | Ryegrass, Italian plant response rating (0-100) ([9]; 31 g ai/ha) | Barnyardgrass plant response rating (0-100) ([12]; 31 g ai/ha)
10: Soybean plant response rating (0-100) (soybean (Glycine max) [10]; 31 g ai/ha) | Oat, Wild plant response rating (0-100) [23, 26]
100: Plant response rating, Sedge, Umbrella (0 to 100 scale, 0 is no effect and 100 is complete control) [1] | Barnyardgrass plant response rating (0 to 100 scale) ([12]; 125 g ai/ha) | Amaranth, Palmer plant response rating (0-100) ([13]; 31 g ai/ha) | Amaranth, Palmer plant response rating (0 to 100 scale) ([13]; 125 g ai/ha) | Corn plant response rating (0 to 100 scale) (corn (Zea mays) [14]; [27]) | Blackgrass plant response rating (0 to 100 scale) [18, 27] | Ryegrass, Italian plant response rating (0 to 100 scale) [21, 27] | Soybean plant response rating (0 to 100 scale) (soybean (Glycine max) [22]; [27]) | Amaranth, Palmer / Pigweed, Palmer plant response rating (0 to 100 scale) [25, 27]
65: Plant response rating, Rice (0 to 100 scale, 0 is no effect and 100 is complete control) (rice (Oryza sativa))
20: Wheat plant response rating (0-100) ([8]; 31 g ai/ha) | Oat, Wild plant response rating (0 to 100 scale) ([11]; 125 g ai/ha) | Ragweed plant response rating (0 to 100 scale) [16, 27]
95: Plant response rating, Ducksalad (0 to 100 scale, 0 is no effect and 100 is complete control) [3]
80: Wheat plant response rating (0 to 100 scale) ([8]; 125 g ai/ha) | Kochia plant response rating (0-100) (kochia (Bassia scoparia) [15]; [26]) | Kochia plant response rating (0 to 100 scale) (kochia (Bassia scoparia) [15]; [27])
30: Ragweed plant response rating (0-100) ([6]; 31 g ai/ha)
90: Kochia plant response rating (0 to 100 scale) (kochia (Bassia scoparia) [5]; 125 g ai/ha) | Ryegrass, Italian plant response rating (0 to 100 scale) ([9]; 125 g ai/ha) | Corn plant response rating (0-100) (corn (Zea mays) [14]; [26]) | Horseweed plant response rating (0 to 100 scale) [17, 27] | Blackgrass plant response rating (0-100) [18, 26] | Galium plant response rating (0-100) [19, 26] | Galium plant response rating (0 to 100 scale) [19, 27] | Wheat plant response rating (0 to 100 scale) [20, 27] | Ryegrass, Italian plant response rating (0-100) [21, 26] | Soybean plant response rating (0-100) (soybean (Glycine max) [22]; [26]) | Oat, Wild plant response rating (0 to 100 scale) [23, 27] | Barnyardgrass plant response rating (0-100) [24, 26] | Barnyardgrass plant response rating (0 to 100 scale) [24, 27] | Amaranth, Palmer plant response rating (0-100) [25, 26]
50: Blackgrass plant response rating (0 to 100 scale) ([7]; 125 g ai/ha)
70: Plant response rating, Barnyardgrass (0 to 100 scale, 0 is no effect and 100 is complete control) [2] | Horseweed plant response rating (0-100) [17, 26]
0: Corn plant response rating (0-100) (corn (Zea mays) [4]; 31 g ai/ha) | Blackgrass plant response rating (0-100) ([7]; 31 g ai/ha) | Oat, Wild plant response rating (0-100) ([11]; 31 g ai/ha) | Ragweed plant response rating (0-100) [16, 26]
